# From patent US12137690B2, “Herbicidal mixtures comprising L-glufosinate and their use in cotton cultures” (BASF SE, priority 2017, dated 2024)
# Legend:
# Test in all cases: Post emergence treatment, herbicidal activity on scale 0 to 100, synergism by Colby
# Type in all cases: in vivo
# Details in all cases: scale 0-100
# AVEFA (Avena fatua) = test system: AVEFA (Avena fatua)
# Description: (§1) The presence of a synergistic effect in terms of percent control, between two mixing partners (X and Y) can be calculated using the Colby equation (Colby, S. R., 1967, Calculating Synergistic and Antagonistic Responses in Herbicide Combinations, Weeds, 15, 21-22):
# (§2) The analysis of synergism or antagonism between the mixtures or compositions was determined using Colby's equation.
# (§3) The culture containers used were plastic flowerpots containing loamy sand with approximately 3.0% of humus as the substrate. The seeds of the test plants were sown separately for each species and/or resistant biotype. […] The containers were irrigated gently to promote germination and growth and subsequently covered with transparent plastic hoods until the plants had rooted. This cover caused uniform germination of the test plants, unless this had been impaired by the active ingredients. […] For this purpose, the test plants were either sown directly and grown in the same containers, or they were first grown separately as seedlings and transplanted into the test containers a few days prior to treatment. Depending on the species, the plants were kept at 10-25° C. or 20-35° C., respectively. The test period extended to 20 days after treatment. During this time, the plants were tended, and their response to the individual treatments was evaluated. The evaluation was carried out by using a scale from 0 to 100. 100 means no emergence of the plants or complete destruction of at least the above-ground parts, and 0 means no damage, or normal course of growth. Data shown are the mean of two replications.
# SETVI (Setaria viridis) = test system: SETVI (Setaria viridis)
# Description: as §1, §2, §3
# CYPIR (Cyperus iria) = test system: CYPIR (Cyperus iria)
# Description: as §1, §2, §3
# KCHSC (Kochia scoparia) = test system: KCHSC (Kochia scoparia)
# Description: as §1, §2, §3
# [1] = test system: ABUTH (Abutilon theophrasti)
# Description: as §1, §2, §3
# [2] = test system: CHEAL (Chenopodium album)
# Description: as §1, §2, §3
# [3] = test system: ECHCG (Echinochloa crus-galli)
# Description: as §1, §2, §3
# [4] = test system: ERICA (Erigeron Canadensis, Conyza canadensis)
# Description: as §1, §2, §3
# [5] = 2,4-D as dimethylammonium salt 70 g ai/ha
# [6] = 2,4-D as dimethylammonium salt 140 g ai/ha
molecule,measurement,setting,value
"CNC.O=C(O)COc1ccc(Cl)cc1Cl [2,4-D as dimethylammonium salt, 2,4-D dimethylammonium salt]","Herbicidal activity against AVEFA, Found",AVEFA (Avena fatua); [5],0
same,"Herbicidal activity against AVEFA, Found",AVEFA (Avena fatua); [6],0
same,"Herbicidal activity against SETVI, Found",SETVI (Setaria viridis); [5],0
same,"Herbicidal activity against SETVI, Found",SETVI (Setaria viridis); [6],0
"CCOC(=O)COc1ncccc1Oc1cc(-n2c(=O)cc(C(F)(F)F)n(C)c2=O)c(F)cc1Cl [Compound II-83, ethyl [3-[2-chloro-4-fluoro-5-(1-methyl-6-trifluoromethyl-2,4-dioxo-1,2,3,4-tetrahydropyrimidin-3-yl)phenoxy]-2-pyridyloxy]acetate]","Herbicidal activity against CYPIR, Found",CYPIR (Cyperus iria); Compound II-83 0.25 g ai/ha,0
"CNC.COc1c(Cl)ccc(Cl)c1C(=O)O [Dicamba as dimethylammonium salt, Dicamba dimethylammonium salt]","Herbicidal activity against SETVI, Found",SETVI (Setaria viridis); Dicamba as dimethylammonium salt 35 g ai/ha,0
same,"Herbicidal activity against SETVI, Found",SETVI (Setaria viridis); Dicamba as dimethylammonium salt 70 g ai/ha,0
same,"Herbicidal activity against SETVI, Found",SETVI (Setaria viridis); Dicamba as dimethylammonium salt 140 g ai/ha,30
"COC[C@H](C)N(C(=O)CCl)c1c(C)csc1C [Dimethenamid-P, dimethenamid-P]","Herbicidal activity against KCHSC, Found",KCHSC (Kochia scoparia); Dimethenamid-P 500 g ai/ha,0
same,"Herbicidal activity against KCHSC, Found",KCHSC (Kochia scoparia); Dimethenamid-P 1000 g ai/ha,70
"CN(C)C(=O)Nc1ccc(Cl)c(Cl)c1 [Diuron, diuron]","Herbicidal activity against AVEFA, Found",AVEFA (Avena fatua); Diuron 125 g ai/ha,20
same,"Herbicidal activity against AVEFA, Found",AVEFA (Avena fatua); Diuron 250 g ai/ha,30
"CN(C)C(=O)Nc1cccc(C(F)(F)F)c1 [Fluometuron, fluometuron]","Herbicidal activity against ABUTH, Found",[1]; Fluometuron 125 g ai/ha,0
same,"Herbicidal activity against ABUTH, Found",[1]; Fluometuron 250 g ai/ha,20
"CP(=O)(O)CC[C@H](N)C(=O)O [L-Glufosinate, (2S)-2-amino-4-[hydroxy(methyl)phosphinoyl]butyric acid]","Herbicidal activity against ABUTH, Found",[1]; L-Glufosinate 75 g ai/ha,0
same,"Herbicidal activity against AVEFA, Found",AVEFA (Avena fatua); L-Glufosinate 100 g ai/ha,35
same,"Herbicidal activity against AVEFA, Found",AVEFA (Avena fatua); L-Glufosinate 300 g ai/ha,20
same,"Herbicidal activity against CHEAL, Found",[2]; L-Glufosinate 100 g ai/ha,0
same,"Herbicidal activity against CYPIR, Found",CYPIR (Cyperus iria); L-Glufosinate 200 g ai/ha,0
same,"Herbicidal activity against ECHCG, Found","[3]; Example 4, L-Glufosinate 200 g ai/ha",0
same,"Herbicidal activity against ECHCG, Found","[3]; Example 4, L-Glufosinate 400 g ai/ha",65
same,"Herbicidal activity against ECHCG, Found","[3]; Example 6, L-Glufosinate 200 g ai/ha",0
same,"Herbicidal activity against ECHCG, Found","[3]; Example 6, L-Glufosinate 400 g ai/ha",65
same,"Herbicidal activity against ECHCG, Found","[3]; Example 12, L-Glufosinate 100 g ai/ha",0
same,"Herbicidal activity against ECHCG, Found","[3]; Example 12, L-Glufosinate 200 g ai/ha",0
same,"Herbicidal activity against ECHCG, Found","[3]; Example 13, L-Glufosinate 100 g ai/ha",0
same,"Herbicidal activity against ECHCG, Found","[3]; Example 13, L-Glufosinate 200 g ai/ha",0
same,"Herbicidal activity against ECHCG, Found","[3]; Example 14, L-Glufosinate 100 g ai/ha",0
same,"Herbicidal activity against ECHCG, Found","[3]; Example 14, L-Glufosinate 200 g ai/ha",0
same,"Herbicidal activity against ERICA, Found",[4]; L-Glufosinate 75 g ai/ha,90
same,"Herbicidal activity against KCHSC, Found",KCHSC (Kochia scoparia); L-Glufosinate 200 g ai/ha,90
same,"Herbicidal activity against SETVI, Found","SETVI (Setaria viridis); Example 8, L-Glufosinate 100 g ai/ha",30
same,"Herbicidal activity against SETVI, Found","SETVI (Setaria viridis); Example 9, L-Glufosinate 100 g ai/ha",30
same,"Herbicidal activity against SETVI, Found",SETVI (Setaria viridis); L-Glufosinate 75 g ai/ha,0
same,"Herbicidal activity against SETVI, Found",SETVI (Setaria viridis); L-Glufosinate 150 g ai/ha,70
"CCc1cccc(C)c1N(C(=O)CCl)[C@@H](C)COC [S-Metolachlor, S-metolachlor]","Herbicidal activity against CHEAL, Found",[2]; S-Metolachlor 500 g ai/ha,20
same,"Herbicidal activity against CHEAL, Found",[2]; S-Metolachlor 1000 g ai/ha,75
"CC(C)N(C)S(=O)(=O)NC(=O)c1cc(-n2c(=O)cc(C(F)(F)F)n(C)c2=O)c(F)cc1Cl [Saflufenacil, saflufenacil]","Herbicidal activity against ECHCG, Found",[3]; Saflufenacil 0.5 g ai/ha,0
"Cc1nn(-c2cc(NS(C)(=O)=O)c(Cl)cc2Cl)c(=O)n1C(F)F [Sulfentrazone, sulfentrazone]","Herbicidal activity against ERICA, Found",[4]; Sulfentrazone 1.25 g ai/ha,0
same,"Herbicidal activity against ERICA, Found",[4]; Sulfentrazone 2.5 g ai/ha,0
"CS(=O)(=O)c1ccc(C(=O)C2C(=O)CCCC2=O)c(Cl)c1COCC(F)(F)F [Tembotrione, tembotrione]","Herbicidal activity against ECHCG, Found",[3]; Tembotrione 0.5 g ai/ha,0
O=C(Nc1ccccc1)Nc1cnns1 [Thidiazuron],"Herbicidal activity against SETVI, Found",SETVI (Setaria viridis); Thidiazuron 50 g ai/ha,0
"Cc1c(C(=O)c2cnn(C)c2O)ccc(S(C)(=O)=O)c1C1=NOCC1 [Topramezone, topramezone]","Herbicidal activity against ECHCG, Found",[3]; Topramezone 1 g ai/ha,0
"C#CCN1C(=O)C(F)(F)Oc2cc(F)c(-n3c(=O)n(C)c(=S)n(C)c3=O)cc21 [Trifludimoxazin, trifludimoxazin]","Herbicidal activity against ECHCG, Found",[3]; Trifludimoxazin 0.25 g ai/ha,10
bicyclopyrone,"Herbicidal activity against ECHCG, Found",[3]; Bicyclopyrone 2 g ai/ha,0
